In patent US6620841B1, “Aromatic heterocycle compounds having HIV integrase inhibiting activities” (Shionogi & Co., Ltd., priority 1998, dated 2003):
In brackets after ≈: the same amount, converted by molar mass. Like-named read-outs stand apart in the source and are kept apart here.

Columns and labels:
SIVmac MA239 = test: Anti-HIV/SIV activity in infected Molt-4 cells, virus amount by RT activity; format: cell-based; conditions: RT activity of supernatant at 5 days postinfection
Experimental: (§1) (1) Molt-4 cells (2×10^6 cells) were infected with HIV-1 NL432 (4×10^6 cpm), HIV-2 Rod (8×10^6 cpm), SIVmac MA239 (8×10^6 cpm) and SIVagm SA212 (8×10^6 cpm), and incubated for 1 hr at room temperature.
(§2) (3) Preparation of SIVmac MA239: SW480 cells were cultured in DMEM medium supplemented with 10% fetal bovine serum using 25 cm^2 flask. SIVmac MA239 infectious molecular DNA (40 μg), pMA239, transfected to the cells by calcium phosphate coprecipitation method, and the supernatant (2 ml) at 2-3 days post-transfection was infected to CEMX174 cells (1×10^6 cells). The cells were cultured in 10 ml RPMI medium supplemented with 10% fetal bovine serum in CO2 incubator at 37° C. After apparent giant cells were observed, the cells were removed by centrifugation and then the supernatant was filtrated by 0.45 μm filter, measured RT activity, and stored at −80° C. as SIVmac stock virus.
(§3) (2) The cells were washed twice to remove the viruses and suspended in 10 ml RPMI medium supplemented with 10% fetal bovine serum. The infected cells (100 μl) were plated in 96 well microtiter plates containing with the serial 5 fold dilution of compounds (100 μl) and cultured in CO2 incubator at 37° C.
(§4) (3) The supernatant at 5 days postinfection was harvested and measured the amount of the virus by RT activity.
(§5) Preparation of the solution for RT assay:
(§6) A reaction mixture (90 μl) were contained 50 mM Tris-HCl, pH 8.3, 150 mM KCl, 10 mM MgCl2, 0.1% Nonidet P-40, 10 mM DTT (dithiothreitol), 5 μg/ml poly(rA), 5 μg/ml (dT)12-18 and 1 μCi [^3H] dTTP at final concentration after mixture of a sample (10 μl).
(§7) The procedure of RT assay:
(§8) 1. 10 μl of sample was plated to 3 wells of 96 well microtiter plate (triplicate assay).
(§9) 2. Reaction mixture (90 μl) chilled at 4° C. was added to each well, mixed and then incubate at 37° C. for 3 hrs.
(§10) 3. After incubation, the plate was chilled on ice, and passed through a DEAE-Filtermat using cell harvester. The filter was washed with 4.5% Na2HPO4 (20 sec) and H2O (10 sec).
(§11) 4. The filter was dried at 95° C. for 15 min.
(§12) 5. 10 ml of scintilator was added and sealed.
(§13) 6. Radioactivity was measured by LKB Beta Plate scintillation spectroscopy.
(§14) 7. RT activity (cpm/ml) was calculated from average of three wells.

HIV-2 Rod = test: as above; format: cell-based; conditions: RT activity of supernatant at 5 days postinfection
Experimental: as §1
(2) Preparation of […] Rod: HIV-2 Rod was infected to M8166 cells (1×10^6 cells). The cells were cultured in 10 ml RPMI medium supplemented with 10% fetal bovine serum in CO2 incubator at 37° C. After apparent giant cells were observed, the cells were removed by centrifugation and then the supernatant was filtrated by 0.45 μm filter, measured RT activity, and stored at −80° C. as HIV-2 stock virus.
as §3, §4, §5, §6, §7, §8, §9, §10, §11, §12, §13, §14

HIV-1 NL432 = test: as above; format: cell-based; conditions: RT activity of supernatant at 5 days postinfection
Experimental: as §1
as §2, with “(1)” for “(3)”, “HIV-1 NL432:” for “SIVmac MA239:”, “HIV-1” for “SIVmac MA239”, “pNL432,” for “pMA239,”, “M8166” for “CEMX174”, “HIV-1” for “SIVmac”
as §3, §4, §5, §6, §7, §8, §9, §10, §11, §12, §13, §14

SIVagm SA212 = test: as above; format: cell-based; conditions: RT activity of supernatant at 5 days postinfection
Experimental: as §1
(4) Preparation of SIVagm SA212: SW480 cells were cultured in DMEM medium supplemented with 10% fetal bovine serum using 25 cm^2 flask. SIVagm SA212 infectious molecular DNA (40 μg), pSA212, transfected to the cells by calcium phosphate coprecipitation methods, and the supernatant (2 ml) at 2-3 days post-transfection was infected to M8166 cells (1×10^6 cells). The cells were cultured in 10 ml RPMI medium supplemented with 10% fetal bovine serum in CO2 incubator at 37° C. Every 3 days, the cells were separated from the supernatant by centrifugation and continued culture with new medium. The each supernatant was filtrated by 0.45 μm filter, measured RT activity, and stored at −80° C. as SIVagm stock virus.
as §3, §4, §5, §6, §7, §8, §9, §10, §11, §12, §13, §14

[1] = system: feline immunodeficiency virus (FIV TM-2 strain); test: Anti-FIV activity in MYA-1 feline T-cells, virus amount by RT activity; format: cell-based; conditions: FIV TM-2 in MYA-1 cells, RT activity at 10 days postinfection
Experimental: (1) The serial 5 fold diluted samples were plated in 24 well microtiter plate. Feline T-cell lines (MYA-1 cells: 4×10^5 cells/well) and feline immunodeficiency virus (FIV TM-2 strain: 3000 cpm/well) were added to each well. The cells were cultured with 1.5 ml RPMI medium supplemented with 10% fetal bovine serum, 2 μg/ml polybrene, 100 unit/ml human recombinant IL-2 and 50 μM 2-mercaptoethanol in CO2 incubator at 37° C.
1. Preparation of FIV TM-2: FIV TM-2 was infected to MYA-1 cells (1×10^6 cells). The cells were cultured in 10 ml RPMI medium supplemented with 10% fetal bovine serum, 2 μg/ml polybrene, 100 unit/ml human recombinant IL-2 and 50 μM 2-mercaptoethanol in CO2 incubator at 37° C. Every 1-2 days, the cells were separated from the supernatant by centrifugation and continued culture with new medium. Each of the supernatant was filtrated by 0.45 μm filter, measured RT activity, and stored at as −80° C. as FIV stock virus.
(2) Every 1-2 days, the supernatants were measured the amount of the virus by RT activity (as same as experimental example 2).

HIV-1 integrase = HIV-1 integrase (Human immunodeficiency virus type 1 group M subtype B, UniProt P12497); test: HIV-1 integrase inhibition assay (microtiter plate, substrate/target DNA, OD 405 nm)
Experimental: (2) Calculations of the Percent Inhibitions (the IC50 Values of Test Compounds)
Streptavidin, obtained from Vector Laboratories, was dissolved in 0.1 M carbonate buffer (composition: 90 mM Na2CO3, 10 mM NaHCO3) at concentration of 40 μg/ml. After coating each well of microtiter plates (obtained from NUNC) with 50 μl of the above solution at 4° C. over night, each well was washed twice with PBS (composition: 13.7 mM NaCl, 0.27 mM KCl, 0.43 mM Na2HPO4, 0.14 mM KH2PO4) and blocked with 300 μl of 1% skim milk in PBS for 30 min. Additionally, each well was washed twice with PBS and added 50 μl of substrate DNA solution (2 pmol/μl). The microtiter plates were kept at room temperature for 30 min. Then, each well was washed twice with PBS and once with H2O.
Subsequently, in the each well prepared above were added 45 μl of the reaction buffer prepared from 12 μl of the buffer (composition: 150 mM MOPS (pH 7.2), 75 mM MnCl2, 50 mM 2-mercaptoethanol, 25% glycerol, 500 μg/ml bovine serum albumin-fraction V), 1 μl of target DNA (5 pmol/μl), and 32 μl of the distilled water. Additionally, 6 μl of either a test compound in DMSO or DMSO for positive control(PC) was mixed with the above reaction buffer, then 9 μl of an integrase solution (30 pmol) was added and mixed well. In the well of negative control (NC) was added 9 μl of the integrase dilution buffer (composition: 20 mM MOPS (pH7.2), 400 mM potassium glutamate, 1 mM EDTA, 0.1% NP-40, 20% glycerol, 1 mM DTT, 4M urea).
The microtiter plates were incubated at 30° C. for 1 hour. The reaction solution was removed and each well was washed twice with PBS. Subsequently, each well of the microtiter plates was filled with 100 μl of anti-digoxigenin antibody labeled with alkaline phosphatase (Sheep Fab fragment: obtained from Boehringer) and incubated at 30° C. for 1 hour. Then, each well was washed twice with 0.05% Tween20 in PBS and once with PBS. Next, 150 μl of the Alkaline phosphatase reaction buffer (composition: 10 mM p-Nitrophenylphosphate (obtained from Vector Laboratories), 5 mM MgCl2, 100 mM NaCl, 100 mM Tris-HCl (pH 9.5))was added in each well. […] The optical density (OD) at 405 nm of each well was measured and the percent inhibition was determined by the following expression.
The percent inhibition (%)=100[1-{(C abs.−NC abs.)/(PC abs.−NC abs.)}]
C abs.; the OD of the well of the compounds
NC abs.: the OD of the negative control (NC)
PC abs.: the OD of the positive control (PC)
IC50(μg/ml)=x−{(X−50)(x−y)/(X−Y)}

[2] = Simian immunodeficiency virus, 120 h

Compound	Anti-HIV/SIV activity EC50, SIVmac (SIVmac MA239) [µg/mL]	Anti-HIV/SIV activity EC50, HIV-2 Rod (HIV-2 Rod) [µg/mL]	Anti-HIV/SIV activity EC50, HIV-1 NL432 (HIV-1 NL432) [µg/mL]	Anti-HIV/SIV activity EC50, SIVagm (SIVagm SA212) [µg/mL]	IC50 (HIV-1 integrase) [µM]	melting point [°C]	other results
Nc1ccn([C@@H]2CS[C@H](CO)O2)c(=O)n1 [3TC]	0.0091	0.022	0.0084	0.022	–	–	–
Cc1cn([C@H]2C[C@H](N=[N+]=[N-])[C@@H](CO)O2)c(=O)[nH]c1=O [AZT]	0.00035	0.00028	0.00051	0.00036	–	–	EC50 [1]: 0.048 µg/mL (≈ 0.18 µM)
O=C(/C=C(\O)c1nc[nH]n1)c1ccc(Cc2ccc(F)cc2)o1 [I-42, 1-[5-(4-fluorobenzyl)furan-2-yl]-3-hydroxy-3-(1H-1,2,4-triazol-3-yl)-propenone]	–	–	–	–	–	–	EC50 ([1]; Feline immunodeficiency virus, T-cell, 240 h, read-out: EC50): 0.3 µg/mL (≈ 0.958 µM)
Cn1ccnc1C(O)=CC(=O)c1ccc(Cc2ccc(F)cc2)o1 [I-100, 1-[5-(4-Fluorobenzyl)furan-2-yl]-3-hydroxy-3-(1-methyl-1H-imidazol-2-yl)-propenone]	–	–	–	–	4.9	56 to 57	–
CCCc1nc(C(O)=CC(=O)c2ccc(Cc3ccc(F)cc3)o2)n[nH]1 [I-112, 1-[5-(4-Fluorobenzyl)furan-2-yl]-3-hydroxy-3-(5-propyl-1H-1,2,4-triazol-3yl)-propenone]	–	–	–	–	1.72	167 to 168	–
O=C(C=C(O)c1nc[nH]n1)c1cnc(Cc2ccc(F)cc2)o1 [I-150, 1-[2-(4-Fluorobenzyl)oxazolyl-5-yl]-3-hydroxy-3-(1H-1,2,4-triazol-3-yl)-propenone]	–	–	–	–	3.12	200 to 203	–
CC(C)c1nc(COC(N)=O)n(Cc2ccncc2)c1Sc1cc(Cl)cc(Cl)c1 [S-1153]	>4	>4	0.00077	1.5	–	–	EC50 [1]: >5 µg/mL
Cc1cn([C@H]2C=C[C@@H](CO)O2)c(=O)[nH]c1=O [d4T]	0.0034	0.0041	0.0061	0.0045	–	–	–
Cc1ccnc2c1NC(=O)c1cccnc1N2C1CC1 [nevirapine]	–	–	–	–	–	–	EC50 (SIVmac MA239; [2]): > 20 µg/mL; EC50 (HIV-2 Rod; Human immunodeficiency virus 2, 120 h): > 20 µg/mL; EC50 (HIV-1 NL432; Human immunodeficiency virus 1, 120 h): 0.013 µg/mL (≈ 0.0488 µM); EC50 (SIVagm SA212; [2]): > 20 µg/mL
